Data as given in patent US12421249B2, “Inhibitors of APOL1 and methods of using same” (Vertex Pharmaceuticals Incorporated, priority 2020, dated 2025).

Tests used:
Format in all cases: cell-based
[1] = biological target: T1, APOL1 G1 (Homo sapiens, UniProt O14791, I384M/S342G); assay: MultiTox-Fluor Multiplex Cytotoxicity Assay in tet-inducible APOL1 G1 T-REx-HEK293 cells (clone G1 DC3.25); design: expressed in transfected cells; host or cells: T-REx HEK293, pAAVS1-Puro-APOL1 G1, clone G1 DC3.25; settings: Multi-Tox Assay, APOL1 variant cell line not given; for Emax: read-out: Multi-Tox Assay Max Activity (%); for IC50: IP50 = IC50 for cell proliferation
T1 sequence (O14791 28-398 S342G/I384M): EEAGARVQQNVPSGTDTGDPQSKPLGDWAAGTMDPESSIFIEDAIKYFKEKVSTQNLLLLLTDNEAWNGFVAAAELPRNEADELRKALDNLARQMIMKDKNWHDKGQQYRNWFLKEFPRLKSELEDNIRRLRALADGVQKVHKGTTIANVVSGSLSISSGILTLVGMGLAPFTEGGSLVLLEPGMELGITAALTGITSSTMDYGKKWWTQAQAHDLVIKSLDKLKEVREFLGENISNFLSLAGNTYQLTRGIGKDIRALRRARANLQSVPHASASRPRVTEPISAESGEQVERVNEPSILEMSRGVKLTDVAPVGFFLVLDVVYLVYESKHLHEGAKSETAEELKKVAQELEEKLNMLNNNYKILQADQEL
Experimental: The MultiTox-Fluor Multiplex Cytotoxicity Assay is a single-reagent-addition, homogeneous, fluorescence assay that measures the number of live and dead cells simultaneously in culture wells. The assay measures cell viability and cytotoxicity by detecting two distinct protease activities. The live-cell protease activity is restricted to intact viable cells and is measured using a fluorogenic, cell-permeant peptide glycyl-phenylalanylamino fluorocoumarin (GF-AFC) substrate. The substrate enters intact cells, where it is cleaved to generate a fluorescent signal proportional to the number of living cells. […] A second, cell-impermeant, fluorogenic peptide substrate (bis-AAF-R110 Substrate) is used to measure dead-cell protease that has been released from cells that have lost membrane integrity. A ratio of dead to live cells is used to normalize data.
Briefly, the tet-inducible transgenic APOL1 T-REx-HEK293 cell lines were incubated with 50 ng/mL tet to induce APOL1 in the presence of 3-(2-(4-fluorophenyl)-1H-indol-3-yl)-N-((3S,4R)-4-hydroxy-2-oxopyrrolidin-3-yl)propenamide at […], 0.0045, 0.0015, 0.0005 μM in duplicate for 24 hours in a humidified 37° C. incubator. The MultiTox reagent was added to each well and placed back in the incubator for an additional 30 minutes. The plate was read on the EnVision plate reader. A ratio of dead to live cells was used to normalize, and data was imported, analyzed and fit using Genedata Screener (Basel, Switzerland) software. Data was normalized using percent of control, no tet (100% viability), and 50 ng/mL tet treated (0% viability), and fit using Smart Fit. The reagents, methods, and complete protocol for the MultiTox assay are described below.
Human embryonic kidney (HEK293) cell lines containing a tet-inducible expression system (T-REx™; Invitrogen, Carlsbad, CA) and Adeno-associated virus site 1 pAAVS1-Puro-APOL1 G0 or pAAVS1-Puro-APOL1 G1 or pAAVS1-Puro-APOL1 G2 Clones G0 DC2.13, G1 DC3.25, and G2 DC4.44 were grown in a T-225 flask at ˜90% confluency in cell growth media (DMEM, 10% Tet-free FBS, 2 mM L-glutamine, 100 Units/mL penicillin-streptomycin, 5 μg/mL blasticidin S HCl, 1 μg/mL puromycin dihydrochloride). Cells were washed with DPBS and then trypsinized to dissociate from the flask. Media was used to quench the trypsin, cells were then pelleted at 200 g and resuspended in fresh cell assay media (DMEM, 2% Tet-free FBS, 2 mM L-glutamine, 100 Units/mL penicillin-streptomycin). Cells were counted and diluted to 1.17×10^6 cells/mL. 20 μL of cells (23,400/well) were dispensed to every well of a 384-well Poly-D-Lysine coated plate using the Multidrop dispenser. The plates were then incubated at room temperature for one hour.
Tetracycline is needed to induce APOL1 expression. 1 mg/mL tet stock in water was diluted to 250 ng/mL (5×) in cell assay media. 60 μL of cell assay media (no tet control) was dispensed in columns 1 and 24, and 60 μL of 5× tet was dispensed in 384-PP-round bottom plate in columns 2 to 23 with the Multidrop dispenser.
Assay ready plates from the Global Compound Archive were ordered using template 384_APOL1Cell_DR10n2_50 μM_v3. Compounds were dispensed at 200 nL in DMSO. The final top concentration was 10 μM with a 10 point 3-fold dilution in duplicate in the MultiTox assay.
20 μL were transferred from the 5× tet plate to the ARP and mixed, then 5 μL of 5× tet and the compounds were transferred to the cell plate and mixed using the Bravo. The cell plate was placed in the humidified 37° C. 5% CO2 incubator for 24 hours.
The MultiTox-Fluor Multiplex Cytotoxicity Assay was performed in accordance with the manufacturer's protocol. After cells were incubated with tet and compound for 24 hours, 25 μL of 1× MultiTox reagent was added to each well using the Multidrop dispenser; the plates were placed on a plate shaker (600 rpm) for 2 minutes, then centrifuged briefly and placed back in the 37° C. incubator for 30 minutes. […]

[2] = biological target: T1, APOL1 G1; assay: Trypanosoma brucei brucei Lysis Assay Using APOL1 Recombinant Protein (AlamarBlue viability readout); settings: Trypanosome Assay; for IC50: IP50 = IC50 for cell proliferation, read-out: Trypanosome Assay IP50; for Emax: read-out: Trypanosome Assay Max Activity (%)
Outline: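 Percent viability comes from AlamarBlue (resazurin→resorufin) fluorescence interpolated on a standard curve of known parasite numbers, with no-APOL1 wells as 100%. Parasites (Lister 427 bloodstream form, 120,000/well, serum-free assay medium) meet 0.05 μg/mL APOL1 (~EC90). Compounds span a 10-point series, 0.1% DMSO final.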

[3] = biological target: T2, APOL1 (Homo sapiens, UniProt O14791); assay: Multi-Tox Assay (MultiTox-Fluor Multiplex Cytotoxicity Assay in tet-inducible APOL1 T-REx-HEK293 cells; Table 46 does not say which APOL1 variant G0/G1/G2); settings: IP50 = IC50 for cell proliferation, APOL1 variant not given
T2 sequence (O14791 1-398 S342G/I384M): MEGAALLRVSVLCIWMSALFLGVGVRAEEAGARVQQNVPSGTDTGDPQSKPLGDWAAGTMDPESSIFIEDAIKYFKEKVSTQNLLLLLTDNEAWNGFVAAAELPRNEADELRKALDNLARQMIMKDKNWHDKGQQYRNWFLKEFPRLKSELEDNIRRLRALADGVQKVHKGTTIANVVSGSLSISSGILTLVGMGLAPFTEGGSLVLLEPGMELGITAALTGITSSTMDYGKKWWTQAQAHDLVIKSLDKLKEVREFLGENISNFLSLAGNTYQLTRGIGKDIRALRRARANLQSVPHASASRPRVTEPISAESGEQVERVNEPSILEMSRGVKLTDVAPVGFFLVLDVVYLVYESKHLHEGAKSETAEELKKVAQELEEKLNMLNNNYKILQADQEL

Compound	Emax [1]	IC50 [1]	also measured
COCC1([C@@H]2C[C@]3(C[C@H](C)N2)OCCc2cc(Cl)sc23)CC1 (racemic) [Compound 376]	99%	0.05 to 0.5 µM	IC90 [1]: 0.05 to 0.5 µM
C[C@H]1C[C@@]2(C[C@@H](C3(C#N)CC3)N1)OCCc1cc(Cl)sc12 (racemic) [Compound 377]	98%	0.05 to 0.5 µM	IC90 [1]: > 0.5 µM
C[C@H]1C[C@@]2(C[C@@H](C3(N(C)C)CC3)N1)OCCc1cc(Cl)sc12 (racemic) [Compound 378]	99%	< 0.05 µM	IC90 [1]: 0.05 to 0.5 µM
CCOC(=O)C1CC1[C@@H]1C[C@]2(C[C@H](C)N1)OCCc1cc(Cl)sc12 (stereo in doubt) [Compound 374]	99%	< 0.05 µM	IC90 [1]: 0.05 to 0.5 µM
CCOC(=O)C1CC1[C@@H]1C[C@]2(C[C@H](C)N1)OCCc1cc(Cl)sc12 (stereo in doubt) [Compound 375]		< 0.05 µM	IC90 [1]: 0.05 to 0.5 µM
C[C@H]1C[C@@]2(C[C@@H](CC3CCOCC3)N1)OCCc1cc(Cl)sc12 [Compound 219, (2S,6R)-2-chloro-2′-methyl-6′-(tetrahydropyran-4-ylmethyl)spiro[4,5-dihydrothieno[2,3-c]pyran-7,4′-piperidine]]			IC50 [2]: > 0.5 µM; Emax [2]: 71%; IC50 [3]: > 0.5 µM
C[C@H]1C[C@@]2(C[C@@H](C3CC3)N1)OCC(O)c1cc(Cl)sc12 (stereo partly drawn) [Compound 220, (2S,6S)-2-chloro-2′-cyclopropyl-6′-methyl-spiro[4,5-dihydrothieno[2,3-c]pyran-7,4′-piperidine]-4-ol]			IC50 [2]: < 0.05 µM; Emax [2]: 110%; IC50 [3]: < 0.05 µM
C[C@H]1C[C@@]2(C[C@@H](c3cn(CCO)nn3)N1)OCC(F)(F)c1cc(Cl)sc12 [Compound 361]	98%	< 0.05 µM	
COc1ccc(Cn2cc([C@@H]3C[C@]4(C[C@H](C)N3)OCC(F)(F)c3cc(Cl)sc34)nn2)cc1F [Compound 362]	98%		
C[C@H]1C[C@@]2(C[C@@H](c3cn(C[C@@H](O)CO)nn3)N1)OCC(F)(F)c1cc(Cl)sc12 [Compound 363]	99%	< 0.05 µM	
C[C@H]1C[C@@]2(C[C@@H](c3cn(CC(C)(C)O)nn3)N1)OCC(F)(F)c1cc(Cl)sc12 [Compound 364]	95%		
C[C@H]1C[C@@]2(C[C@@H](c3cn(Cc4cncs4)nn3)N1)OCC(F)(F)c1cc(Cl)sc12 [Compound 365]	99%	< 0.05 µM	
C[C@H]1C[C@@]2(C[C@@H](c3cn(Cc4ccc5nc(O)[nH]c5c4)nn3)N1)OCC(F)(F)c1cc(Cl)sc12 [Compound 366]	95%		
C[C@H]1C[C@@]2(C[C@@H](c3cn(CCC(C)(C)O)nn3)N1)OCC(F)(F)c1cc(Cl)sc12 [Compound 367]	99%	< 0.05 µM	
C[C@H]1C[C@@]2(C[C@@H](c3cn(CC4CCC(=O)NC4)nn3)N1)OCC(F)(F)c1cc(Cl)sc12 (some centres unmarked) [Compound 368]	96%		
C[C@H]1C[C@@]2(C[C@@H](c3cn(CC#N)nn3)N1)OCC(F)(F)c1cc(Cl)sc12 [Compound 369]	98%		
CC(CO)Cn1cc([C@@H]2C[C@]3(C[C@H](C)N2)OCC(F)(F)c2cc(Cl)sc23)nn1 (some centres unmarked) [Compound 370]	99%		
C[C@H](CO)Cn1cc([C@@H]2C[C@]3(C[C@H](C)N2)OCC(F)(F)c2cc(Cl)sc23)nn1 [Compound 371]	99%	< 0.05 µM	IC90 [1]: 0.05 to 0.5 µM
COC(=O)C1([C@@H]2C[C@]3(C[C@H](C)N2)OCCc2cc(Cl)sc23)CC1 [Compound 372, methyl 1-[(2′S, 6′S, 7S)-2-chloro-6′-methyl-spiro[4,5-dihydrothieno[2,3-c]pyran-7,4′-piperidine]-2′-yl]cyclopropanecarboxylate]	92%	> 0.5 µM	
C[C@H]1C[C@@]2(C[C@@H](C3(N)CC3)N1)OCCc1cc(Cl)sc12 [Compound 373, 1-[(2′S,6′S,7S)-2-chloro-6′-methyl-spiro[4,5-dihydrothieno[2,3-c]pyran-7,4′-piperidine]-2′-yl]cyclopropanamine]	99%	< 0.05 µM	
CC(=O)NC1([C@@H]2C[C@]3(C[C@H](C)N2)OCCc2cc(Cl)sc23)CC1 [Compound 379, N-[1-[(2′S,6′S, 7S)-2-chloro-6′-methyl-spiro[4,5-dihydrothieno[2,3-c]pyran-7,4′-piperidine]-2′-yl]cyclopropyl]acetamide]	94%	> 0.5 µM	
C[C@H]1C[C@@]2(C[C@@H](C3(CO)CC3)N1)OCCc1cc(Cl)sc12 [Compound 380, [1-[(2′S,6′S, 7S)-2-chloro-6′-methyl-spiro[4,5-dihydrothieno[2,3-c]pyran-7,4′-piperidine]-2′-yl]cyclopropyl]methanol]	99%	< 0.05 µM	
Cn1cc([C@@H]2C[C@]3(C[C@H](C4CC4)N2)OCCc2cc(Cl)sc23)nn1 [Compound 381, (2′R,6′S, 7S)-2-chloro-2′-cyclopropyl-6′-(1-methyltriazol-4-yl)spiro[4,5-dihydrothieno[2,3-c]pyran-7,4′-piperidine]]		< 0.05 µM	
Cn1cc([C@@H]2C[C@]3(C[C@H](C4CC4)N2)OC[C@@H](O)c2cc(Cl)sc23)nn1 [Compound 382, (2′R,4S,6′S, 7S)-2-chloro-2′-cyclopropyl-6′-(1-methyltriazol-4-yl)spiro[4,5-dihydrothieno[2,3-c]pyran-7,4′-piperidine]-4-ol]		< 0.05 µM	
